The record followed here is patent US12697313B2, “Methods of treating anemia using formoterol or a pharmaceutically acceptable salt thereof” (Dana-Farber Cancer Institute, Inc., priority 2022, dated 2026).

This assay deals with phenylhydrazine (PHZ)-treated mice. Kind of assay: FF oral gavage in PHZ-treated mice at sub-lethal dose of 60 mg/kg. The assay is classed as in vivo.
[1] abbreviates: 14 days of daily o.g., PHZ 60 mg/kg, FIG. 59.

Molecules are shown by their SMILES.

Turning to `COc1ccc(C[C@@H](C)NC[C@H](O)c2ccc(O)c(NC=O)c2)cc1.O=C(O)/C=C/C(=O)O` [FF, (E)-but-2-enedioic acid;N-[2-hydroxy-5-[(1R)-1-hydroxy-2-[[(2R)-1-(4-methoxyphenyl)propan-2-yl]amino]ethyl]phenyl]formamide], where the note is “14 days of daily o.g., FIG. 60”, the “granulocyte monocyte progenitors (GMP)” value is “does not affect granulocyte monocyte progenitors (GMP)” and the “megakaryocytic progenitors (MkP)” value is “increases megakaryocytic progenitors (MkP)”. Under setting [1], the “mitochondrial membrane potential (TMRE staining) in BMPs” value is “increases viability and mitochondrial membrane potential”; the “viability of BMPs” value was “increases viability and mitochondrial membrane potential”. Further, the body weights result (o.g., PHZ 60 mg/kg, FIG. 56) is reported as “does not affect body weights”. Moreover, where the note is “o.g., PHZ 60 mg/kg, FIG. 57”, the “RBC parameters (HCT % and Hb) in peripheral blood” value is given as “increases RBC parameters”. Moreover, for the setting “o.g., PHZ 60 mg/kg, FIG. 58”, the “WBC and platelets in peripheral blood” value is “does not affect WBC and platelets”.
